# Results from PubChem BioAssay (NCI).
#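 GI50 is the concentration that inhibits growth by half. TGI: concentration producing complete growth inhibition.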
# What was measured:
# Assay in all cases: NCI anticancer screen, dose series, 384-well format
# [1] = tested on: HOP-62 NSCLC
# [2] = tested on: HS 578T breast
# [3] = tested on: PC-3 prostate
# [4] = tested on: RXF 393 renal
# [5] = tested on: 786-0 renal
# [6] = tested on: RPMI-8226 leukemia
# [7] = tested on: SNB-75 CNS
# [8] = tested on: OVCAR-5 ovarian
# [9] = tested on: MALME-3M melanoma
# [10] = tested on: NCI-H460 NSCLC
# [11] = tested on: CCRF-CEM leukemia
# [12] = tested on: OVCAR-8 ovarian
# [13] = tested on: T-47D breast
# [14] = tested on: OVCAR-3 ovarian
# [15] = tested on: IGROV1 ovarian
# [16] = tested on: HCT-15 colon
# [17] = tested on: MOLT-4 leukemia
# [18] = tested on: SK-OV-3 ovarian
# [19] = tested on: MCF7 breast
# [20] = tested on: ACHN renal
# [21] = tested on: HOP-92 NSCLC
# [22] = tested on: BT-549 breast
# [23] = tested on: SK-MEL-28 melanoma
# [24] = tested on: KM12 colon
# [25] = tested on: NCI-H23 lung
# [26] = tested on: MDA-MB-231 breast
# [27] = tested on: NCI-H522 lung
# [28] = tested on: NCI/ADR-RES ovarian
# [29] = tested on: K-562 leukemia
# [30] = tested on: SF-539 CNS
# [31] = tested on: SN12C renal
# [32] = tested on: NCI-H226 lung
# [33] = tested on: M14 melanoma
# [34] = tested on: SF-268 CNS
# [35] = tested on: MDA-MB-435 melanoma
# [36] = tested on: DU-145 prostate
# [37] = tested on: SF-295 CNS
# [38] = tested on: SK-MEL-5 melanoma
# [39] = tested on: SW-620 colon
# [40] = tested on: UO-31 renal
# [41] = tested on: UACC-257 melanoma
# [42] = tested on: LOX IMVI melanoma
# [43] = tested on: NCI-H322M lung
# [44] = tested on: OVCAR-4 ovarian
# [45] = tested on: COLO 205 colon
# [46] = tested on: EKVX NSCLC
# [47] = tested on: A549 NSCLC
# [48] = tested on: UACC-62 melanoma
# [49] = tested on: HCC-2998 colon
# [50] = tested on: HCT-116 colon
# [51] = tested on: U251 glioblastoma
# [52] = tested on: TK-10 renal
# [53] = tested on: HT29 colon
# [54] = tested on: HL-60(TB) leukemia
# [55] = tested on: SNB-19 CNS
# [56] = tested on: MDA-MB-468 breast
# [57] = tested on: CAKI-1 renal
# [58] = tested on: A498 renal
smiles,measurement,setting,value
CNC(=O)c1cc2c(Oc3ccc(NC(=S)NC(=O)Cc4ccccc4)cc3F)ccnc2cc1OC,GI50,[1],17.9 µM
same,TGI,[1],> 100 µM
same,GI50,[2],2490 nM
same,TGI,[2],7.12 µM
same,GI50,[3],10.9 µM
same,TGI,[3],> 100 µM
same,GI50,[4],2470 nM
same,TGI,[4],6.88 µM
same,GI50,[5],8.3 µM
same,TGI,[5],99.7 µM
same,GI50,[6],14.7 µM
same,TGI,[6],> 100 µM
same,GI50,[7],1900 nM
same,TGI,[7],6.95 µM
same,GI50,[8],19.9 µM
same,TGI,[8],93.3 µM
same,GI50,[9],15.9 µM
same,TGI,[9],> 100 µM
same,GI50,[10],20.1 µM
same,TGI,[10],> 100000 nM
same,GI50,[11],5.36 µM
same,TGI,[11],28.8 µM
same,GI50,[12],36.2 µM
same,TGI,[12],> 100 µM
same,GI50,[13],5.05 µM
same,TGI,[13],26 µM
same,GI50,[14],17.7 µM
same,TGI,[14],> 100 µM
same,GI50,[15],3030 nM
same,TGI,[15],17 µM
same,GI50,[16],8.36 µM
same,TGI,[16],> 100 µM
same,GI50,[17],2200 nM
same,TGI,[17],10.6 µM
same,GI50,[18],9.39 µM
same,TGI,[18],36.2 µM
same,GI50,[19],14.5 µM
same,TGI,[19],> 100 µM
same,GI50,[20],5110 nM
same,TGI,[20],54.5 µM
same,GI50,[21],1500 nM
same,TGI,[21],7.58 µM
same,GI50,[22],3420 nM
same,TGI,[22],9.66 µM
same,GI50,[23],29.4 µM
same,TGI,[23],> 100 µM
same,GI50,[24],3400 nM
same,TGI,[24],> 100 µM
same,GI50,[25],1950 nM
same,TGI,[25],23.7 µM
same,GI50,[26],7.39 µM
same,TGI,[26],83.2 µM
same,GI50,[27],5300 nM
same,TGI,[27],27.1 µM
same,GI50,[28],18.8 µM
same,TGI,[28],> 100000 nM
same,GI50,[29],486 nM
same,TGI,[29],1700 nM
same,GI50,[30],5.2 µM
same,TGI,[30],27.8 µM
same,GI50,[31],2.37 µM
same,TGI,[31],19.5 µM
same,GI50,[32],4.01 µM
same,TGI,[32],45.7 µM
same,GI50,[33],8.36 µM
same,TGI,[33],> 100 µM
same,GI50,[34],2500 nM
same,TGI,[34],6.66 µM
same,GI50,[35],31.1 µM
same,TGI,[35],> 100 µM
same,GI50,[36],34.8 µM
same,TGI,[36],> 100 µM
same,GI50,[37],2250 nM
same,TGI,[37],37.2 µM
same,GI50,[38],8.55 µM
same,TGI,[38],33.1 µM
same,GI50,[39],47.2 µM
same,TGI,[39],> 100 µM
same,GI50,[40],23 µM
same,TGI,[40],> 100 µM
same,GI50,[41],18.9 µM
same,TGI,[41],> 100 µM
same,GI50,[42],8.61 µM
same,TGI,[42],> 100 µM
same,GI50,[43],31.9 µM
same,TGI,[43],> 100 µM
same,GI50,[44],27.4 µM
same,TGI,[44],> 100 µM
same,GI50,[45],12.1 µM
same,TGI,[45],> 100 µM
same,GI50,[46],28.9 µM
same,TGI,[46],> 100 µM
same,GI50,[47],12.3 µM
same,TGI,[47],> 100 µM
same,GI50,[48],5440 nM
same,TGI,[48],95.4 µM
same,GI50,[49],> 100 µM
same,TGI,[49],> 100 µM
same,GI50,[50],21 µM
same,TGI,[50],> 100 µM
same,GI50,[51],18.8 µM
same,TGI,[51],> 100 µM
same,GI50,[52],24.3 µM
same,TGI,[52],> 100 µM
same,GI50,[53],5.67 µM
same,TGI,[53],> 100 µM
same,GI50,[54],29.2 µM
same,TGI,[54],> 100 µM
same,GI50,[55],49 µM
same,TGI,[55],> 100 µM
same,GI50,[56],5.2 µM
same,TGI,[56],25.2 µM
same,GI50,[57],4550 nM
same,TGI,[57],17.5 µM
same,GI50,[58],8.59 µM
same,TGI,[58],81.7 µM
COc1ccc(Oc2cc(NCCC(F)(F)F)c3ncc(-c4ccc(C(=O)NC5CC5)c(C)c4)n3n2)c(F)c1F,GI50,[1],< 0.01 µM
same,TGI,[1],4.93 µM
same,GI50,[2],20.4 nM
same,TGI,[2],2.32 µM
same,GI50,[3],1.43 µM
same,TGI,[3],28.8 µM
same,GI50,[4],< 10 nM
same,TGI,[4],0.932 µM
same,GI50,[5],< 0.01 µM
same,TGI,[5],14.3 µM
same,GI50,[6],< 0.01 µM
same,TGI,[6],24.5 µM
same,GI50,[7],54.4 nM
same,TGI,[7],13.3 µM
same,GI50,[8],0.977 µM
same,TGI,[8],> 100 µM
same,GI50,[9],0.182 µM
same,TGI,[9],26.7 µM
same,GI50,[10],< 0.01 µM
same,TGI,[10],1170 nM
same,GI50,[11],< 0.01 µM
same,TGI,[11],< 0.01 µM
same,GI50,[12],< 0.01 µM
same,TGI,[12],3.68 µM
same,GI50,[13],2.11 µM
same,TGI,[13],34.8 µM
same,GI50,[14],0.365 µM
same,TGI,[14],17.5 µM
same,GI50,[15],337 nM
same,TGI,[15],46.4 µM
same,GI50,[16],< 0.01 µM
same,TGI,[16],12.2 µM
same,GI50,[17],< 10 nM
same,TGI,[17],< 0.01 µM
same,GI50,[18],0.459 µM
same,TGI,[18],27 µM
same,GI50,[19],1.75 µM
same,TGI,[19],85 µM
same,GI50,[20],169 nM
same,TGI,[20],26.9 µM
same,GI50,[21],1160 nM
same,TGI,[21],14.5 µM
same,GI50,[22],256 nM
same,TGI,[22],17 µM
same,GI50,[23],9.92 µM
same,TGI,[23],40.7 µM
same,GI50,[24],271 nM
same,TGI,[24],> 100 µM
same,GI50,[25],< 10 nM
same,TGI,[25],29.6 µM
same,GI50,[26],0.365 µM
same,TGI,[26],30.1 µM
same,GI50,[27],682 nM
same,TGI,[27],14.3 µM
same,GI50,[28],< 0.01 µM
same,TGI,[28],568 nM
same,GI50,[29],264 nM
same,TGI,[29],> 100000 nM
same,GI50,[30],< 0.01 µM
same,TGI,[30],2.11 µM
same,GI50,[31],18.5 µM
same,TGI,[31],> 100 µM
same,GI50,[32],4.83 µM
same,TGI,[32],54.4 µM
same,GI50,[33],0.0101 µM
same,TGI,[33],15.2 µM
same,GI50,[34],< 10 nM
same,TGI,[34],< 0.01 µM
same,GI50,[35],0.286 µM
same,TGI,[35],70 µM
same,GI50,[36],< 0.01 µM
same,TGI,[36],> 100 µM
same,GI50,[37],1410 nM
same,TGI,[37],31.2 µM
same,GI50,[38],< 0.01 µM
same,TGI,[38],18.5 µM
same,GI50,[39],< 0.01 µM
same,TGI,[39],18.5 µM
same,GI50,[40],< 0.01 µM
same,TGI,[40],20 µM
same,GI50,[41],3.09 µM
same,TGI,[41],25.4 µM
same,GI50,[42],< 0.01 µM
same,TGI,[42],11.5 µM
same,GI50,[43],2.14 µM
same,TGI,[43],> 100 µM
same,GI50,[44],13.9 µM
same,TGI,[44],67 µM
same,GI50,[45],< 0.01 µM
same,TGI,[45],> 100 µM
same,GI50,[46],5.88 µM
same,TGI,[46],84.2 µM
same,GI50,[47],< 0.01 µM
same,TGI,[47],18.4 µM
same,GI50,[48],44.1 nM
same,TGI,[48],8.83 µM
same,GI50,[49],13.1 µM
same,TGI,[49],> 100 µM
same,GI50,[50],< 0.01 µM
same,TGI,[50],> 100 µM
same,GI50,[51],< 0.01 µM
same,TGI,[51],17.4 µM
same,GI50,[52],5.83 µM
same,TGI,[52],62.2 µM
same,GI50,[53],< 0.01 µM
same,TGI,[53],> 100 µM
same,GI50,[54],< 0.01 µM
same,TGI,[54],< 0.01 µM
same,GI50,[55],2.8 µM
same,TGI,[55],39.8 µM
same,GI50,[56],< 0.01 µM
same,TGI,[56],3.47 µM
same,GI50,[57],208 nM
same,TGI,[57],2.48 µM
same,GI50,[58],0.189 µM
same,TGI,[58],7.86 µM
